Laboratory results: patent US6677316B2, “Adenosine derivatives and methods of administration” (SmithKline Beecham Corporation, priority 1998, dated 2004)

Assays:
[1] = target: T1, human adenosine A3 receptor (Homo sapiens, UniProt P0DMS8); test: Reporter gene assay (CRE/SPAP) in CHO cells, agonist potency relative to NECA, adenosine A3 receptor; format: cell-based; design: key: equipotent concentration ratio, NECA = 1; details: ECR = equipotent concentration ratio relative to NECA = 1, inhibition of forskolin-stimulated SPAP production
T1 construct: expressed in transfected cells; host or cells: Chinese hamster ovary (CHO) cells with CRE/SPAP/HYG reporter elements
T1 sequence (P0DMS8 1-318): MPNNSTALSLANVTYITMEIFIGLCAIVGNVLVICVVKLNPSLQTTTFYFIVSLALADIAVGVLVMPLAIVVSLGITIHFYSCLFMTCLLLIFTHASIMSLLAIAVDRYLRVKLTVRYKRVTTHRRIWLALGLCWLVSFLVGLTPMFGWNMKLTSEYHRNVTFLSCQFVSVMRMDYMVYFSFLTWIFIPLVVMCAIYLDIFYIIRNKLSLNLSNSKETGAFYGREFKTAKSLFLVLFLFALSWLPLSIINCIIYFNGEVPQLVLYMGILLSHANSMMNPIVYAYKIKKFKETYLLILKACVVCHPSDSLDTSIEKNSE
Protocol: (§1) Reporter Gene Experiments
(§2) Agonist activity was measured in Chinese hamster ovary (CHO) cells containing the CRE/SPAP/HYG (CRE=cyclic AMP response element; HYG=hygromycin resistance; SPAP=secreted placental alkaline phosphatase) reporter gene elements, which upon stimulation of cAMP levels produced SPAP. A cell line was used, which was stably transfected with either the human adenosine A1 receptor or the human adenosine A3 receptor in addition to the above elements. Cells were plated out in 96-well plates in culture medium and incubated at 37° C. for 1 hour. For measurement of potency, agonists were added to the appropriate wells at a concentration range of approximately 10^−10- 10^−5M. 15Min later, cAMP levels were stimulated by addition of a maximal concentration of forskolin. All cells were then incubated for a further 5 hours at 37° C., and cooled to room temperature, after which a substrate for the phosphatase (para-nitrophenol phosphate, pNPP), which is converted by SPAP to a coloured reagent) was then added and the 96-well -plates were read in a plate reader. From these readings, the concentration-dependence of the inhibition by the agonist for forskolin-stimulated SPAP production can be calculated. One of the agonists tested on each 96-well plate was the standard non-selective agonist, N-ethylcarboxamidoadenosine (NECA), and the potency of all test agonists is expressed relative to that of the NECA standard.
(§3) (ECR=equipotent concentration ratio relative to NECA=1)

[2] = target: T2, human adenosine A1 receptor (Homo sapiens, UniProt P30542); test: Reporter gene assay (CRE/SPAP) in CHO cells, agonist potency relative to NECA, adenosine A1 receptor; format: cell-based; design: key: equipotent concentration ratio, NECA = 1; details: ECR = equipotent concentration ratio relative to NECA = 1, inhibition of forskolin-stimulated SPAP production
T2 construct: expressed in transfected cells; host or cells: Chinese hamster ovary (CHO) cells with CRE/SPAP/HYG reporter elements
T2 sequence (P30542 1-326): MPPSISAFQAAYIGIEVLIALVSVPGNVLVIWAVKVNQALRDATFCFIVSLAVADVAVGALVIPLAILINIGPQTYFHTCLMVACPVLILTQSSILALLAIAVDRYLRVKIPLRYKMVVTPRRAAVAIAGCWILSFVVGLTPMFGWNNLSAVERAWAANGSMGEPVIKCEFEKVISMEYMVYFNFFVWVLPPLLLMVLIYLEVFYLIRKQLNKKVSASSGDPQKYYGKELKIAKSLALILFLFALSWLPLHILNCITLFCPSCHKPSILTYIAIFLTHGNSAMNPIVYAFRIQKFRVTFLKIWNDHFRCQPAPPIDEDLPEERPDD
Protocol: as §1, §2, §3

SMILES | Adenosine A3 receptor ECR* [1] | Adenosine A1 receptor ECR* [2]
CC(C)(C)c1noc([C@H]2O[C@@H](n3cnc4c(NCC5CC5)ncnc43)[C@H](O)[C@@H]2O)n1 [Example 44, (2S,3S,4 R,5R)-2-[3-(tert-butyl)-1,2,4-oxadiazol-5-yl]-5-{6-[(cyclopropylmethyl)amino]-9H-purin-9-yl}tetrahydrofuran-3,4-diol] | 165.54 | 7.68
CC(C)CNc1ncnc2c1ncn2[C@@H]1O[C@H](c2nc(C(C)(C)C)no2)[C@@H](O)[C@H]1O [Example 45, (2S,3S,4R,5R)-2-[3-(tert-butyl)-1,2,4-oxadiazol-5-yl]-5-[6-(isobutylamino)-9H-purin-9-yl]tetrahydrofuran-3,4-diol] | 165.54 | 7.36
CC(C)c1noc([C@H]2O[C@@H](n3cnc4c(NC5CC5)ncnc43)[C@H](O)[C@@H]2O)n1 [Example 51, (2R,3R,4S,5S)-2-[6-(cyclopropylamino)-9H-purin-9-yl]-5-(3-isopropyl-1,2,4-oxadiazol-5-yl)tetrahydrofuran-3,4-diol] | 587.75 | 7.56
CNS(=O)(=O)CCNc1ncnc2c1ncn2[C@@H]1O[C@H](c2nc(C(C)C)no2)[C@@H](O)[C@H]1O [Example 54, 2-({9-[(2R,3R,4S,5S)-3,4-dihydroxy-5-(3-isopropyl-1,2,4-oxadiazol-5-yl)tetrahydrofuran-2-yl]-9H-purin-6-yl}amino)-N-methylethanesulfonamide] | 715.31 | 20.78
CC(C)c1noc([C@H]2O[C@@H](n3cnc4c(Nc5ccc(F)c(F)c5)ncnc43)[C@H](O)[C@@H]2O)n1 [Example 56, (2R,3R,4S,5S)-2-[6-(3,4-difluoroanilino)-9H-purin-9-yl]-5-(3-isopropyl-1,2,4-oxadiazol-5-yl)tetrahydrofuran-3,4-diol] | 717.99 | 15.96
O[C@@H]1[C@H](O)[C@@H](c2nc(C3CC3)no2)O[C@H]1n1cnc2c(Nc3ccc(Cl)cc3F)ncnc21 [Example 62, (2R,3R,4S,5S)-2-[6-(4-chloro-2-fluoroanilino)-9H-purin-9-yl]-5-(3-cyclopropyl-1,2,4-oxadiazol-5-yl)tetrahydrofuran-3,4-diol] | 327 | 29.47
CC(C)(C)c1nnc([C@H]2O[C@@H](n3cnc4c(Nc5ccc(Cl)cc5F)ncnc43)[C@H](O)[C@@H]2O)[nH]1 [Example 67, (2R,3S,4 R,5 R)-2-[5-(tert-butyl)-4H-1,2,4-triazol-3-yl]-5-[6-(4-chloro-2-fluoroanilino)-9H-purin-9-yl]tetrahydrofuran-3,4-diol] | 827.66 | 9.8
CC(C)c1nnc([C@H]2O[C@@H](n3cnc4c(Nc5ccc(F)cc5Cl)ncnc43)[C@H](O)[C@@H]2O)[nH]1 [Example 68, (2R,3R,4S,5R)-2-[6-(2-chloro-4-fluoroanilino)-9H-purin-9-yl]-5-(5-isopropyl-4H-1,2,4-triazol-3-yl)tetrahydrofuran-3,4-diol] | 417.37 | 4.09
O[C@@H]1[C@H](O)[C@@H](c2nnc(C3CC3)o2)O[C@H]1n1cnc2c(NC3CCOCC3)ncnc21 [Example 108, (2S,3S,4R,5R)-2-(5-cyclopropyl-1,3,4-oxadiazol-2-yl)-5-[6-(tetrahydro-2H-pyran-4-ylamino)-9H-purin-9-yl]tetrahydrofuran-3,4-diol] | 254 | 1.52
CC(C)(C)c1nnc([C@H]2O[C@@H](n3cnc4c(Nc5ccc(F)cc5Cl)ncnc43)[C@H](O)[C@@H]2O)o1 [Example 116, (2S,3S,4R,5R)-2-[5-(tert-butyl)-1,3,4-oxadiazol-2-yl]-5-[6-(2-chloro-4-fluoroanilino)-9H-purin-9-yl]tetrahydrofuran-3,4-diol] | 955 | 27.26
CC(C)(C)c1cc([C@H]2O[C@@H](n3cnc4c(NC5CCS(=O)(=O)CC5)ncnc43)[C@H](O)[C@@H]2O)on1 [Example 119, (2S,3S,4 R,5R)-2-[3-(tert-butyl)isoxazol-5-yl]-5-{6-[(1,1-dioxidotetrahydro-2H-thiopyran-4-yl)amino]-9H-purin-9-yl}tetrahydrofuran-3,4-diol] | 154 | 2.83
CCC(CC)Nc1nc(Cl)nc2c1ncn2[C@@H]1O[C@H](c2nc(C3CC3)no2)[C@@H](O)[C@H]1O.O=CO.O=CO [Example 133, (2R,3R,4S,5S)-2-{2-chloro-6-[(1-ethylpropyl)amino]-9H-purin-9-yl}-5-(3-cyclopropyl-1,2,4-oxadiazol-5-yl)tetrahydrofuran-3,4-diol formate (1:2)] | 466.92 | 25.47

The next lines start with the values.

Adenosine A3 receptor ECR* [1] | Adenosine A1 receptor ECR* [2] | SMILES
325.44 | 4.19 | CCNS(=O)(=O)CCNc1ncnc2c1ncn2[C@@H]1O[C@H](c2nnc(C(C)(C)C)o2)[C@@H](O)[C@H]1O [Example 123, 2-[(9-{(2R,3 R,4S,5S)-5-[5-(tert-butyl)-1,3,4-oxadiazol-2-yl]-3,4-dihydroxytetrahydrofuran-2-yl}-9H-purin-6-yl)amino]-N-ethylethanesulfonamide]
21.62 | 0.21 | CNS(=O)(=O)CCNc1ncnc2c1ncn2[C@@H]1O[C@H](c2ncc(C)o2)[C@@H](O)[C@H]1O [Example 127, 2-({9-[(2R,3R,4S,5S)-3,4-dihydroxy-5-(5-methyl-1,3-oxazol-2-yl)tetrahydrofuran-2-yl]-9H-purin-6-yl}amino)-N-methylethanesulfonamide]
>199 | 15.5 | COCc1noc([C@H]2O[C@@H](n3cnc4c(NC5CCCC5)ncnc43)[C@H](O)[C@@H]2O)n1 [Example 129, (2R,3R,4S,5S)-2-[6-(cyclopentylamino)-9H-purin-9-yl]-5-[3-(methoxymethyl)-1,2,4-oxadiazol-5-yl]tetrahydrofuran-3,4-diol]
199.01 | 0.15 | CCc1nnc([C@H]2O[C@@H](n3cnc4c(NC(C)C)ncnc43)[C@H](O)[C@@H]2O)o1 [Example 131, (2S,3S,4R,5R)-2-(5-ethyl-1,3,4-oxadiazol-2-yl)-5-[6-(isopropylamino)-9H-purin-9-yl]tetrahydrofuran-3,4-diol]
>22.4 | 0.53 | Cc1nnc([C@H]2O[C@@H](n3cnc4c(N[C@H]5CCC[C@@H]5O)ncnc43)[C@H](O)[C@@H]2O)o1 [Example 132, (2R,3R,4S,5S)-2-(6-{[(1 S,2S)-2-hydroxycyclopentyl]amino}-9H-purin-9-yl)-5-(5-methyl-1,3,4-oxadiazol-2-yl)tetrahydrofuran-3,4-diol]
228 | 10.64 | CC(C)(C)c1nnc([C@H]2O[C@@H](n3cnc4c(NC5CCOCC5)ncnc43)[C@H](O)[C@@H]2O)[nH]1 [Example 139, (2R,3S,4R,5R)-2-[5-(tert-butyl)-4H-1,2,4-triazol-3-yl]-5-[6-(tetrahydro-2H-pyran-4-ylamino)-9H-purin-9-yl]tetrahydrofuran-3,4-diol]
228 | 12.08 | CC(C)c1nnc([C@H]2O[C@@H](n3cnc4c(NC5CCOCC5)ncnc43)[C@H](O)[C@@H]2O)[nH]1 [Example 141, (2R,3S,4R,5R)-2-(5-isopropyl-4H-1,2,4-triazol-3-yl)-5-[6-(tetrahydro-2H-pyran-4-ylamino)-9H-purin-9-yl]tetrahydrofuran-3,4-diol]
>74.1 | 19.6 | Cc1cnc([C@H]2O[C@@H](n3cnc4c(Nc5ccc(F)cc5Cl)nc(Cl)nc43)[C@H](O)[C@@H]2O)o1 [Example 143, (2R,3R,4S,5S)-2-[2-chloro-6-(2-chloro-4-fluoroanilino)-9H-purin-9-yl]-5-(5-methyl-1,3-oxazol-2-yl)tetrahydrofuran-3,4-diol]
